The supplement of paper PMC11208160

Experiment: recombinant UMI read abundance after kanamycin selection (control-corrected) (log10(CPM+1)); higher = more efficient recombination; extreme values may be limits of the assay; sequences stand for … in AGTGCAGAGAAAATCGGCCAGTTTTCTCTGCCTGCAGTCCGCATGCCGTGGGACCCCTTGGGTTCTAACCTGTTGCCTAGATTTATGCAGCGGACTGCCTTTCTCCCAAAGTGATAAACCGG…AGGTTGGTTTCACT; site = the 11-nt donor
Outline: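 Each donor and donor-binding-loop pair was tracked by a 12-nt UMI on a plasmid carrying a promoterless kanamycin gene. With a second plasmid supplying a fixed target and T7-inducible IS621 bridge recombinase, the pool was plated in Escherichia coli on IPTG (0.07 mM) plus kanamycin or unselected. Sequencing of recombinant UMIs across the donor–target junction gave counts expressed as log10(CPM+1) after replicate averaging and control-derived scaling.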
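Note: IS621 bridge recombinase in Escherichia coli cells against a fixed T5 target plasmid.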

Sequence | recombinant UMI read abundance (log10)
CCATGCTCATGGACCGGTTTTCCCGGTAATCCGTATTTGAA (site CGATGCTCTTT) | 0.0134
CCATGCTCATGGACCGGTTTTCCCGGTAATCCGTATTTGAA (site CTATGCTCTTT) | 0.015
CCATGTGCATGGACCGGTTTTCCCGGTAATCCGTATTTGAT (site CCAAGTGCTAT) | 0.00273
CCATGTGCATGGACCGGTTTTCCCGGTAATCCGTATTTGAT (site CCACGTGCTAT) | 0.215
CCATGTGCATGGACCGGTTTTCCCGGTAATCCGTATTTGAT (site CCAGGTGCTAT) | 0.00344
CCATGTGCATGGACCGGTTTTCCCGGTAATCCGTATTTGAT (site CCATGTGCTAT) | 1.09
CCATTAGCATGGACCGGTTTTCCCGGTAATCCGTATTTGTG (site CCATTAGCTCA) | 0.183
CCATTAGCATGGACCGGTTTTCCCGGTAATCCGTATTTGTG (site CCCTTAGCTCA) | 0.00634
CCATTAGCATGGACCGGTTTTCCCGGTAATCCGTATTTGTG (site CCGTTAGCTCA) | 0.0308
CCATTAGCATGGACCGGTTTTCCCGGTAATCCGTATTTGTG (site CCTTTAGCTCA) | 0.0119
CCATTCCCATGGACCGGTTTTCCCGGTAATCCGTATTTGAC (site CCATTCCCTGT) | 0
CCATTTGCATGGACCGGTTTTCCCGGTAATCCGTATTTGGC (site CCATTTGCTGC) | 0
CCCAAAGCATGGACCGGTTTTCCCGGTAATCCGTATTTGAT (site CCAAAAGCTAT) | 0
CCCAAAGCATGGACCGGTTTTCCCGGTAATCCGTATTTGAT (site CCCAAAGCTAT) | 0.774
CCCAAAGCATGGACCGGTTTTCCCGGTAATCCGTATTTGAT (site CCGAAAGCTAT) | 0
CCCAAAGCATGGACCGGTTTTCCCGGTAATCCGTATTTGAT (site CCTAAAGCTAT) | 0.00406
CCCAATACATGGACCGGTTTTCCCGGTAATCCGTATTTGGC (site CCAAATACTGC) | 0
CCCAATACATGGACCGGTTTTCCCGGTAATCCGTATTTGGC (site CCCAATACTGC) | 0
CCCAATACATGGACCGGTTTTCCCGGTAATCCGTATTTGGC (site CCGAATACTGC) | 0
CCCAATACATGGACCGGTTTTCCCGGTAATCCGTATTTGGC (site CCTAATACTGC) | 0
CCCACATCATGGACCGGTTTTCCCGGTAATCCGTATTTGTC (site CCCAAATCTGA) | 0
CCCACATCATGGACCGGTTTTCCCGGTAATCCGTATTTGTC (site CCCACATCTGA) | 0.453
CCCACATCATGGACCGGTTTTCCCGGTAATCCGTATTTGTC (site CCCAGATCTGA) | 0
CCCACATCATGGACCGGTTTTCCCGGTAATCCGTATTTGTC (site CCCATATCTGA) | 0
CCCATAGCATGGACCGGTTTTCCCGGTAATCCGTATTTGTC (site CCCATAACTGA) | 0.433

Sequence | recombinant UMI read abundance (log10)
CCCATAGCATGGACCGGTTTTCCCGGTAATCCGTATTTGTC (site CCCATACCTGA) | 0
CCCATAGCATGGACCGGTTTTCCCGGTAATCCGTATTTGTC (site CCCATAGCTGA) | 1.56
CCCATAGCATGGACCGGTTTTCCCGGTAATCCGTATTTGTC (site CCCATATCTGA) | 0
CCCATATCATGGACCGGTTTTCCCGGTAATCCGTATTTGTT (site CCCATATCTAA) | 1.01
CCCATATCATGGACCGGTTTTCCCGGTAATCCGTATTTGTT (site CCCATATCTCA) | 0.0132
CCCATATCATGGACCGGTTTTCCCGGTAATCCGTATTTGTT (site CCCATATCTGA) | 0
CCCATATCATGGACCGGTTTTCCCGGTAATCCGTATTTGTT (site CCCATATCTTA) | 0
CCCATCTCATGGACCGGTTTTCCCGGTAATCCGTATTTGGG (site CCCATCTCTCC) | 0
CCCATCTCATGGACCGGTTTTCCCGGTAATCCGTATTTGGG (site CCCCTCTCTCC) | 0.078
CCCATCTCATGGACCGGTTTTCCCGGTAATCCGTATTTGGG (site CCCGTCTCTCC) | 0.00519
CCCATCTCATGGACCGGTTTTCCCGGTAATCCGTATTTGGG (site CCCTTCTCTCC) | 0.0111
CCCCACACATGGACCGGTTTTCCCGGTAATCCGTATTTGGA (site CCCCACACTTA) | 0.369
CCCCACACATGGACCGGTTTTCCCGGTAATCCGTATTTGGA (site CCCCACACTTC) | 0.275
CCCCACACATGGACCGGTTTTCCCGGTAATCCGTATTTGGA (site CCCCACACTTG) | 0
CCCCACACATGGACCGGTTTTCCCGGTAATCCGTATTTGGA (site CCCCACACTTT) | 0
CCCCACACATGGACCGGTTTTCCCGGTAATCCGTATTTGTG (site CCCCACACTAA) | 0.0034
CCCCACACATGGACCGGTTTTCCCGGTAATCCGTATTTGTG (site CCCCACACTCA) | 0.00514
CCCCACACATGGACCGGTTTTCCCGGTAATCCGTATTTGTG (site CCCCACACTGA) | 0
CCCCACACATGGACCGGTTTTCCCGGTAATCCGTATTTGTG (site CCCCACACTTA) | 0.0257
CCCCACTCATGGACCGGTTTTCCCGGTAATCCGTATTTGTA (site CCCCACACTTA) | 0
CCCCACTCATGGACCGGTTTTCCCGGTAATCCGTATTTGTA (site CCCCACCCTTA) | 0.00571
CCCCACTCATGGACCGGTTTTCCCGGTAATCCGTATTTGTA (site CCCCACGCTTA) | 0.00566
CCCCACTCATGGACCGGTTTTCCCGGTAATCCGTATTTGTA (site CCCCACTCTTA) | 2.01
CCCCATTCATGGACCGGTTTTCCCGGTAATCCGTATTTGGA (site CCCCATTCTTC) | 0.274
CCCCCTACATGGACCGGTTTTCCCGGTAATCCGTATTTGAG (site CACCCTACTCT) | 0.0202

Sequence | recombinant UMI read abundance (log10)
CCCCCTACATGGACCGGTTTTCCCGGTAATCCGTATTTGAG (site CCCCCTACTCT) | 0.0375
CCCCCTACATGGACCGGTTTTCCCGGTAATCCGTATTTGAG (site CGCCCTACTCT) | 0.0197
CCCCCTACATGGACCGGTTTTCCCGGTAATCCGTATTTGAG (site CTCCCTACTCT) | 0.011
CCCCGGGCATGGACCGGTTTTCCCGGTAATCCGTATTTGGG (site CCCCGGGCTCC) | 0.182
CCCGAAGCATGGACCGGTTTTCCCGGTAATCCGTATTTGTT (site CCCGAAGCTAA) | 1.18
CCCGAGACATGGACCGGTTTTCCCGGTAATCCGTATTTGGT (site CCCGAGACTAC) | 0.543
CCCGATCCATGGACCGGTTTTCCCGGTAATCCGTATTTGTG (site CCCGATCCTCA) | 1.73
CCCGCACCATGGACCGGTTTTCCCGGTAATCCGTATTTGCA (site CCCGCACCTTG) | 0
CCCGCCACATGGACCGGTTTTCCCGGTAATCCGTATTTGCC (site CCCGCCACTGG) | 2.07
CCCGCGGCATGGACCGGTTTTCCCGGTAATCCGTATTTGGG (site CCCGCGGCTCC) | 0.0266
CCCGGTCCATGGACCGGTTTTCCCGGTAATCCGTATTTGCA (site ACCGGTCCTTG) | 0
CCCGGTCCATGGACCGGTTTTCCCGGTAATCCGTATTTGCA (site CACGGTCCTTG) | 0
CCCGGTCCATGGACCGGTTTTCCCGGTAATCCGTATTTGCA (site CCAGGTCCTTG) | 0
CCCGGTCCATGGACCGGTTTTCCCGGTAATCCGTATTTGCA (site CCCAGTCCTTG) | 0
CCCGGTCCATGGACCGGTTTTCCCGGTAATCCGTATTTGCA (site CCCCGTCCTTG) | 0.0143
CCCGGTCCATGGACCGGTTTTCCCGGTAATCCGTATTTGCA (site CCCGATCCTTG) | 0
CCCGGTCCATGGACCGGTTTTCCCGGTAATCCGTATTTGCA (site CCCGCTCCTTG) | 0
CCCGGTCCATGGACCGGTTTTCCCGGTAATCCGTATTTGCA (site CCCGGACCTTG) | 0
CCCGGTCCATGGACCGGTTTTCCCGGTAATCCGTATTTGCA (site CCCGGCCCTTG) | 0
CCCGGTCCATGGACCGGTTTTCCCGGTAATCCGTATTTGCA (site CCCGGGCCTTG) | 0.00671
CCCGGTCCATGGACCGGTTTTCCCGGTAATCCGTATTTGCA (site CCCGGTACTTG) | 0
CCCGGTCCATGGACCGGTTTTCCCGGTAATCCGTATTTGCA (site CCCGGTCCTAG) | 0
CCCGGTCCATGGACCGGTTTTCCCGGTAATCCGTATTTGCA (site CCCGGTCCTCG) | 0
CCCGGTCCATGGACCGGTTTTCCCGGTAATCCGTATTTGCA (site CCCGGTCCTGG) | 0
CCCGGTCCATGGACCGGTTTTCCCGGTAATCCGTATTTGCA (site CCCGGTCCTTA) | 0.0178
